{"source": "ChEMBL document CHEMBL3390836", "about": "“Mannich- and LedererManasse-based analogues of the natural product S-(+)-curcuphenol as cancer proliferation and migration inhibitors” (Medchemcomm, 2012)", "format_in_all_cases": "functional", "key": {"[1]": {"system": "NCI-H226", "assay": "Cytotoxicity against human NCI-H226 cells assessed as cell growth at 10^-4 M after 48 hrs by SRB assay relative to control", "conditions": "NCI-H226, 48 h, read-out: Activity"}, "[2]": {"system": "COLO 205", "assay": "Cytotoxicity against human COLO205 cells assessed as cell growth at 10^-4 M after 48 hrs by SRB assay relative to control", "conditions": "COLO 205, 48 h, read-out: Activity"}, "[3]": {"system": "SNB-75", "assay": "Cytotoxicity against human SNB75 cells after 48 hrs by SRB assay", "conditions": "SNB-75, 48 h"}, "[4]": {"system": "SK-MEL-2", "assay": "Cytotoxicity against human SK-MEL-2 cells after 48 hrs by SRB assay", "conditions": "SK-MEL-2, 48 h"}, "[5]": {"assay": "Cytotoxicity against human UACC62 cells after 48 hrs by SRB assay", "conditions": "UACC-62, 48 h"}, "[6]": {"assay": "Cytotoxicity against human NCI-ADR-RES cells after 48 hrs by SRB assay"}, "[7]": {"system": "ACHN", "assay": "Cytotoxicity against human ACHN cells after 48 hrs by SRB assay"}, "[8]": {"assay": "Cytotoxicity against human HCT15 cells assessed as cell growth at 10^-8 M after 48 hrs by SRB assay relative to control", "conditions": "HCT-15, 48 h, read-out: Activity"}, "[9]": {"system": "HT-29", "assay": "Cytotoxicity against human HT-29 cells assessed as cell growth at 10^-8 M after 48 hrs by SRB assay relative to control", "conditions": "HT-29, 48 h, read-out: Activity"}, "[10]": {"assay": "Cytotoxicity against human UACC62 cells assessed as cell growth at 10^-4 M after 48 hrs by SRB assay relative to control", "conditions": "UACC-62, 48 h, read-out: Activity"}, "[11]": {"assay": "Cytotoxicity against human NCI-ADR-RES cells assessed as cell growth at 10^-4 M after 48 hrs by SRB assay relative to control", "conditions": "read-out: Activity"}, "[12]": {"system": "A498", "assay": "Cytotoxicity against human A498 cells assessed as cell growth at 10^-4 M after 48 hrs by SRB assay relative to control", "conditions": "A498, 48 h, read-out: Activity"}, "[13]": {"system": "MCF7", "assay": "Cytotoxicity against human MCF7 cells assessed as cell growth at 10^-4 M after 48 hrs by SRB assay relative to control", "conditions": "MCF7, 48 h, read-out: Activity"}, "[14]": {"system": "MDA-MB-231", "assay": "Cytotoxicity against human MDA-MB-231 cells assessed as cell growth at 10^-4 M after 48 hrs by SRB assay relative to control", "conditions": "MDA-MB-231, 48 h, read-out: Activity"}, "[15]": {"assay": "Cytotoxicity against human Hs 578T cells assessed as cell growth at 10^-4 M after 48 hrs by SRB assay relative to control", "conditions": "read-out: Activity"}, "[16]": {"system": "786-0", "assay": "Cytotoxicity against human 786-0 cells assessed as cell growth at 10^-8 M after 48 hrs by SRB assay relative to control", "conditions": "786-0, 48 h, read-out: Activity"}, "[17]": {"system": "CAKI-1", "assay": "Cytotoxicity against human Caki1 cells assessed as cell growth at 10^-8 M after 48 hrs by SRB assay relative to control", "conditions": "CAKI-1, 48 h, read-out: Activity"}, "[18]": {"assay": "Cytotoxicity against human UO31 cells assessed as cell growth at 10^-8 M after 48 hrs by SRB assay relative to control", "conditions": "UO-31, 48 h, read-out: Activity"}, "[19]": {"assay": "Cytotoxicity against human EKVX cells assessed as cell growth at 10^-7 M after 48 hrs by SRB assay relative to control", "conditions": "read-out: Activity"}, "[20]": {"system": "NCI-H322M", "assay": "Cytotoxicity against human NCI-H322M cells assessed as cell growth at 10^-7 M after 48 hrs by SRB assay relative to control", "conditions": "read-out: Activity"}, "[21]": {"system": "NCI-H460", "assay": "Cytotoxicity against human NCI-H460 cells assessed as cell growth at 10^-7 M after 48 hrs by SRB assay relative to control", "conditions": "NCI-H460, 48 h, read-out: Activity"}, "[22]": {"system": "SNB-75", "assay": "Cytotoxicity against human SNB75 cells assessed as cell growth at 10^-7 M after 48 hrs by SRB assay relative to control", "conditions": "SNB-75, 48 h, read-out: Activity"}, "[23]": {"system": "U-251", "assay": "Cytotoxicity against human U251 cells assessed as cell growth at 10^-7 M after 48 hrs by SRB assay relative to control", "conditions": "U-251, 48 h, read-out: Activity"}, "[24]": {"assay": "Cytotoxicity against human HCT15 cells after 48 hrs by SRB assay", "conditions": "HCT-15, 48 h"}, "[25]": {"system": "MDA-MB-468", "assay": "Cytotoxicity against human MDA-MB-468 cells assessed as cell growth at 10^-7 M after 48 hrs by SRB assay relative to control", "conditions": "MDA-MB-468, 48 h, read-out: Activity"}, "[26]": {"system": "MOLT-4", "assay": "Cytotoxicity against human MOLT4 cells assessed as cell growth at 10^-6 M after 48 hrs by SRB assay relative to control", "conditions": "MOLT-4, 48 h, read-out: Activity"}, "[27]": {"system": "NCI-H226", "assay": "Cytotoxicity against human NCI-H226 cells assessed as cell growth at 10^-6 M after 48 hrs by SRB assay relative to control", "conditions": "NCI-H226, 48 h, read-out: Activity"}, "[28]": {"system": "NCI-H460", "assay": "Cytotoxicity against human NCI-H460 cells assessed as cell growth at 10^-6 M after 48 hrs by SRB assay relative to control", "conditions": "NCI-H460, 48 h, read-out: Activity"}, "[29]": {"system": "COLO 205", "assay": "Cytotoxicity against human COLO205 cells assessed as cell growth at 10^-6 M after 48 hrs by SRB assay relative to control", "conditions": "COLO 205, 48 h, read-out: Activity"}, "[30]": {"assay": "Cytotoxicity against human HCT116 cells assessed as cell growth at 10^-6 M after 48 hrs by SRB assay relative to control", "conditions": "HCT-116, 48 h, read-out: Activity"}, "[31]": {"system": "SF-539", "assay": "Cytotoxicity against human SF539 cells assessed as cell growth at 10^-6 M after 48 hrs by SRB assay relative to control", "conditions": "SF-539, 48 h, read-out: Activity"}, "[32]": {"system": "SK-MEL-2", "assay": "Cytotoxicity against human SK-MEL-2 cells assessed as cell growth at 10^-6 M after 48 hrs by SRB assay relative to control", "conditions": "SK-MEL-2, 48 h, read-out: Activity"}, "[33]": {"assay": "Cytotoxicity against human UACC62 cells assessed as cell growth at 10^-6 M after 48 hrs by SRB assay relative to control", "conditions": "UACC-62, 48 h, read-out: Activity"}, "[34]": {"assay": "Cytotoxicity against human OVCAR3 cells assessed as cell growth at 10^-6 M after 48 hrs by SRB assay relative to control", "conditions": "OVCAR-3, 48 h, read-out: Activity"}, "[35]": {"assay": "Cytotoxicity against human SKOV3 cells assessed as cell growth at 10^-6 M after 48 hrs by SRB assay relative to control", "conditions": "SK-OV-3, 48 h, read-out: Activity"}, "[36]": {"system": "CAKI-1", "assay": "Cytotoxicity against human Caki1 cells assessed as cell growth at 10^-6 M after 48 hrs by SRB assay relative to control", "conditions": "CAKI-1, 48 h, read-out: Activity"}}}
{"compound": "CC(C)=CCC[C@H](C)c1ccc(C)c(CNCC2CCNCC2)c1O", "values": [{"measurement": "growth at 100 µM", "setting": "[1]", "result": 37, "unit": "%"}, {"measurement": "growth at 100 µM", "setting": "[2]", "result": -93, "unit": "%"}, {"measurement": "GI50", "setting": "[3]", "result": 3.89, "unit": "µM"}, {"measurement": "LC50", "setting": "[3]", "result": "> 25", "unit": "µM"}, {"measurement": "TGI", "setting": "[3]", "result": 12.3, "unit": "µM"}, {"measurement": "GI50", "setting": "[4]", "result": 5.03, "unit": "µM"}, {"measurement": "LC50", "setting": "[4]", "result": 19.2, "unit": "µM"}, {"measurement": "TGI", "setting": "[4]", "result": 9.83, "unit": "µM"}, {"measurement": "GI50", "setting": "[5]", "result": 4.24, "unit": "µM"}, {"measurement": "LC50 (concentration killing 50% of cells)", "setting": "[5]", "result": 16.4, "unit": "µM"}, {"measurement": "TGI", "setting": "[5]", "result": 8.32, "unit": "µM"}, {"measurement": "GI50", "setting": "[6]", "result": 19.8, "unit": "µM"}, {"measurement": "LC50 (lethal concentration, 50% cell kill)", "setting": "[6]", "result": "> 25", "unit": "µM"}, {"measurement": "TGI", "setting": "[6]", "result": "> 25", "unit": "µM"}, {"measurement": "GI50", "setting": "[7]", "result": 4.68, "unit": "µM"}, {"measurement": "LC50 (concentration killing 50% of cells)", "setting": "[7]", "result": "> 25", "unit": "µM"}, {"measurement": "TGI", "setting": "[7]", "result": 12.7, "unit": "µM"}, {"measurement": "growth at 0.01 µM", "setting": "[8]", "result": 102, "unit": "%"}, {"measurement": "growth at 0.01 µM", "setting": "[9]", "result": 108, "unit": "%"}, {"measurement": "growth at 100 µM", "setting": "[10]", "result": -81, "unit": "%"}, {"measurement": "growth at 100 µM", "setting": "[11]", "result": 46, "unit": "%"}, {"measurement": "growth at 100 µM", "setting": "[12]", "result": 43, "unit": "%"}, {"measurement": "growth at 100 µM", "setting": "[13]", "result": -89, "unit": "%"}, {"measurement": "growth at 100 µM", "setting": "[14]", "result": -65, "unit": "%"}, {"measurement": "growth at 100 µM", "setting": "[15]", "result": 23, "unit": "%"}, {"measurement": "growth at 0.01 µM", "setting": "[16]", "result": 93, "unit": "%"}, {"measurement": "growth at 0.01 µM", "setting": "[17]", "result": 92, "unit": "%"}, {"measurement": "growth at 0.01 µM", "setting": "[18]", "result": 88, "unit": "%"}, {"measurement": "growth at 0.1 µM", "setting": "[19]", "result": 94, "unit": "%"}, {"measurement": "growth at 0.1 µM", "setting": "[20]", "result": 94, "unit": "%"}, {"measurement": "growth at 0.1 µM", "setting": "[21]", "result": 98, "unit": "%"}, {"measurement": "growth at 0.1 µM", "setting": "[22]", "result": 90, "unit": "%"}, {"measurement": "growth at 0.1 µM", "setting": "[23]", "result": 93, "unit": "%"}, {"measurement": "GI50", "setting": "[24]", "result": 5.19, "unit": "µM"}, {"measurement": "TGI", "setting": "[24]", "result": 18.6, "unit": "µM"}, {"measurement": "CC50", "setting": "[24]; read-out: LC50 (the source's name)", "result": "> 25", "unit": "µM"}, {"measurement": "growth at 0.1 µM", "setting": "[25]", "result": 77, "unit": "%"}, {"measurement": "growth at 1 µM", "setting": "[26]", "result": 99, "unit": "%"}, {"measurement": "growth at 1 µM", "setting": "[27]", "result": 86, "unit": "%"}, {"measurement": "growth at 1 µM", "setting": "[28]", "result": 102, "unit": "%"}, {"measurement": "growth at 1 µM", "setting": "[29]", "result": 107, "unit": "%"}, {"measurement": "growth at 1 µM", "setting": "[30]", "result": 105, "unit": "%"}, {"measurement": "growth at 1 µM", "setting": "[31]", "result": 92, "unit": "%"}, {"measurement": "growth at 1 µM", "setting": "[32]", "result": 116, "unit": "%"}, {"measurement": "growth at 1 µM", "setting": "[33]", "result": 86, "unit": "%"}, {"measurement": "growth at 1 µM", "setting": "[34]", "result": 103, "unit": "%"}, {"measurement": "growth at 1 µM", "setting": "[35]", "result": 104, "unit": "%"}, {"measurement": "growth at 1 µM", "setting": "[36]", "result": 89, "unit": "%"}]}
